# The source made the active and inactive calls. No cut-off for these calls is given here.
# Assays:
# DLD-1 [1] = assay: Effect on NF-kappaB p65 protein expression in TNF-alpha stimulated human DLD-1 cells at 12.5 to 50 uM preincubated for 4 hrs and followed TNF-alpha stimulation and measured after 10 mins by Western blot analysis; format: functional, cell-based; details: dose 12.5-50 µM, time 250.0 min
# Mus musculus [2] = assay: Anti-inflammatory activity in po dosed C57BL/6 mouse model of DSS-induced acute ulcerative colitis assessed as reduction in IL-17A mRNA expression in colon administered once a day for 7 days by RT-PCR analysis; format: functional, organism-based; details: dose 100-300 mg/kg, time 7.0 day
# Mus musculus [3] = assay: Anti-inflammatory activity in po dosed C57BL/6 mouse model of DSS-induced acute ulcerative colitis assessed as reduction in IFN-gamma mRNA expression in colon administered once a day for 7 days by RT-PCR analysis; format: functional, organism-based; details: dose 100-300 mg/kg, time 7.0 day
# DLD-1 [4] = assay: Inhibition of TNF-alpha induced NF-kB activation in human DLD-1 cells assessed as decrease in phosphorylated IKK protein expression preincubated for 4 hrs and followed TNF-alpha stimulation and measured after 10 mins by Western blot analysis; format: cell-based; details: dose 12.5-50 µM, time 250.0 min
# DLD-1 [5] = assay: Upregulation of JNK protein expression in TNF-alpha stimulated human DLD-1 cells at 50 uM preincubated for 4 hrs and followed TNF-alpha stimulation and measured after 10 mins by Western blot analysis; format: functional, cell-based; details: time 250.0 min
# HCT-116 [6] = assay: Inhibition of TNF-alpha induced NF-kB activation in human HCT-116 cells assessed as decrease in phosphorylated p65 protein expression preincubated for 4 hrs and followed TNF-alpha stimulation and measured after 10 mins by Western blot analysis; format: cell-based; details: dose 12.5-50 µM, time 250.0 min
# DLD-1 [7] = assay: Inhibition of TNF-alpha induced MAPK signaling pathway activation in human DLD-1 cells assessed as decrease in phospho-ERK protein expression at 12.5 uM preincubated for 4 hrs and followed TNF-alpha stimulation and measured after 10 mins by Western blot analysis; format: cell-based; details: time 250.0 min
# HCT-116 [8] = assay: Effect on NF-kappaB p65 protein expression in TNF-alpha stimulated human HCT-116 cells at 12.5 to 50 uM preincubated for 4 hrs and followed TNF-alpha stimulation and measured after 10 mins by Western blot analysis; format: functional, cell-based; details: dose 12.5-50 µM, time 250.0 min
# [9] = Cytotoxicity against human DLD-1 cells assessed as inhibition in cell proliferation; format: toxicity, cell-based
# HCT-116 [10] = assay: Inhibition of TNF-alpha induced NF-kB activation in human HCT-116 cells assessed as decrease in phosphorylated IKK protein expression preincubated for 4 hrs and followed TNF-alpha stimulation and measured after 10 mins by Western blot analysis; format: cell-based; details: dose 12.5-50 µM, time 250.0 min
# Mus musculus [11] = assay: Anti-inflammatory activity in po dosed C57BL/6 mouse model of DSS-induced acute ulcerative colitis assessed as reduction in TNFalpha mRNA expression in colon administered once a day for 7 days by RT-PCR analysis; format: functional, organism-based; details: dose 100-300 mg/kg, time 7.0 day
# DLD-1 [12] = assay: Inhibition of TNF-alpha induced NF-kB activation in human DLD-1 cells assessed as decrease in phosphorylated IkappaBalpha protein expression preincubated for 4 hrs and followed TNF-alpha stimulation and measured after 10 mins by Western blot analysis; format: cell-based; details: dose 12.5-50 µM, time 250.0 min
# [13] = Toxicity in C57BL/6 mouse model of DSS-induced acute ulcerative colitis assessed as effect on lung tissue at 100 to 300 mg/kg, po administered once a day for 7 days by H and E staining based analysis; format: organism-based; details: in vivo, 168 h, dose 100-300 mg/kg, time 7 day
# Mus musculus [14] = assay: Anti-inflammatory activity in C57BL/6 mouse model of DSS-induced acute ulcerative colitis assessed as reduction in tissue lesions at 100 to 300 mg/kg, po administered once a day for 7 days by H and E staining based analysis; format: functional, organism-based; details: dose 100-300 mg/kg, time 7.0 day
# [15] = Toxicity in Kunming mouse assessed as increase in body weight at 400 mg/kg, po measured for 15 days (reference value: 12.38%); format: organism-based; details: in vivo, 360 h, time 15 day
# HCT-116 [16] = assay: Effect on p38 protein expression in TNF-alpha stimulated human HCT-116 cells at 6.25 to 50 uM preincubated for 4 hrs and followed TNF-alpha stimulation and measured after 10 mins by Western blot analysis; format: functional, cell-based; details: dose 6.25-50 µM, time 250.0 min
# Mus musculus [17] = assay: Anti-inflammatory activity in po dosed C57BL/6 mouse model of DSS-induced acute ulcerative colitis assessed as reduction in IL-1beta mRNA expression in colon administered once a day for 7 days by RT-PCR analysis; format: functional, organism-based; details: dose 100-300 mg/kg, time 7.0 day
# HCT-116 [18] = assay: Activation of MAPK signaling pathway in TNF-alpha stimulated human HCT-116 cells assessed as increase in phospho-ERK protein expression at 50 uM preincubated for 4 hrs and followed TNF-alpha stimulation and measured after 10 mins by Western blot analysis; format: cell-based; details: filed as activator, time 250.0 min
# RAW264.7 = assay: Antiinflammatory activity in mouse RAW264.7 cells assessed as inhibition in LPS/IFNgamma-induced NO production preincubated for 2 hrs followed by LPS/IFNgamma stimulation and measured after 24 hrs by Griess reagent based assay; format: functional, cell-based
# [19] = Toxicity in C57BL/6 mouse model of DSS-induced acute ulcerative colitis assessed as effect on spleen tissue at 100 to 300 mg/kg, po administered once a day for 7 days by H and E staining based analysis; format: organism-based; details: in vivo, 168 h, dose 100-300 mg/kg, time 7 day
# [20] = Toxicity in Kunming mouse assessed as increase in body weight at 667 mg/kg, po measured for 15 days (reference value: 12.38%); format: organism-based; details: in vivo, 360 h, time 15 day
# DLD-1 [21] = assay: Inhibition of TNF-alpha-induced NF-kappaB nuclear translocation in human DLD-1 cells preincubated for 4 hrs followed by TNF-alpha stimulation and measured after 30 mins by immunofluorescence staining based laser scanning confocal microscopic analysis; format: cell-based; details: dose 25-50 µM, time 4.5 hrs
# DLD-1 [22] = assay: Activation of MAPK signaling pathway in TNF-alpha stimulated human DLD-1 cells assessed as increase in phospho-JNK protein expression at 50 uM preincubated for 4 hrs and followed TNF-alpha stimulation and measured after 10 mins by Western blot analysis; format: cell-based; details: filed as activator, time 250.0 min
# [23] = Toxicity in C57BL/6 mouse model of DSS-induced acute ulcerative colitis assessed as effect on heart tissue at 100 to 300 mg/kg, po administered once a day for 7 days by H and E staining based analysis; format: organism-based; details: in vivo, 168 h, dose 100-300 mg/kg, time 7 day
# [24] = Toxicity in C57BL/6 mouse model of DSS-induced acute ulcerative colitis assessed as effect on kidney tissue at 100 to 300 mg/kg, po administered once a day for 7 days by H and E staining based analysis; format: organism-based; details: in vivo, 168 h, dose 100-300 mg/kg, time 7 day
# [25] = Toxicity in Kunming mouse assessed as number of mouse survived at 1111 mg/kg, po measured for 15 days; format: organism-based; details: in vivo, 360 h, time 15 day
# [26] = Selectivity index, ratio of CC50 for cytotoxicity against LPS/IFNgamma induced mouse RAW264.7 cells to IC50 for antiinflammatory activity in mouse RAW264.7 cells assessed as inhibition in LPS/IFNgamma-induced NO production; format: toxicity, cell-based; details: RAW264.7 cells induced with LPS/IFNgamma, read-out: Ratio IC50
# [27] = Toxicity in Kunming mouse assessed as number of mouse survived at 1852 mg/kg, po measured for 15 days; format: organism-based; details: in vivo, 360 h, time 15 day
# DLD-1 [28] = assay: Inhibition of TNF-alpha induced MAPK signaling pathway activation in human DLD-1 cells assessed as decrease in phospho-JNK protein expression at 12.5 uM preincubated for 4 hrs and followed TNF-alpha stimulation and measured after 10 mins by Western blot analysis; format: cell-based; details: time 250.0 min
# DLD-1 [29] = assay: Inhibition of TNF-alpha induced activation of MAPK signaling pathway in human DLD-1 cells assessed as change in phosphorylated p38 level at 6.25 to 50 uM preincubated for 4 hrs and followed TNF-alpha stimulation and measured after 10 mins by Western blot analysis; format: cell-based; details: dose 6.25-50 µM, time 250.0 min
compound,measurement,setting,value
COC(=O)C1=C(C(=O)OC)C2OC1CC2C#Cc1ccc(C)cc1 (stereo not given),Activity,DLD-1 [1],inactive
same,Activity,Mus musculus [2],Dose-Dependent Effect
same,Activity,Mus musculus [3],Dose-Dependent Effect
same,inhibition,DLD-1 [4],Dose-Dependent Effect
same,Activity,DLD-1 [5],Active
same,inhibition,HCT-116 [6],Dose-Dependent Effect
same,inhibition,DLD-1 [7],Active
same,Activity,HCT-116 [8],inactive
same,IC50,[9],8.24 µM
same,inhibition,HCT-116 [10],Dose-Dependent Effect
same,Activity,Mus musculus [11],Dose-Dependent Effect
same,inhibition,DLD-1 [12],Dose-Dependent Effect
same,Activity,[13],Non-Toxic
same,Activity,Mus musculus [14],Active
same,Activity,[15],13.21%
same,Activity,HCT-116 [16],inactive
same,Activity,Mus musculus [17],Dose-Dependent Effect
same,Activity,HCT-116 [18],Active
same,IC50,RAW264.7,2.66 µM
same,Activity,[19],Non-Toxic
same,Activity,[20],19.18%
same,inhibition,DLD-1 [21],Dose-Dependent Effect
same,Activity,DLD-1 [22],Active
same,Activity,[23],Non-Toxic
same,Activity,[24],Non-Toxic
same,Activity,[25],0
same,selectivity ratio,[26],4.57
same,Activity,[27],0
same,inhibition,DLD-1 [28],Active
same,inhibition,DLD-1 [29],inactive
